Test results reported in patent publication US10131652B2, “Pyrimidinyloxy benzene derivatives as herbicides” (E. I. DU PONT DE NEMOURS AND COMPANY, priority 2014, dated 2018).

How the values were obtained:
Assay type in all cases: in vivo
[1] = test system: Italian ryegrass (Lolium multiflorum); experiment: Test B pre-/postemergence plant response
In short: (§1)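 Greenhouse pots, loam/sand soil; compound formulated with surfactant in non-phytotoxic solvent. Preemergence soil spray and postemergence spray at 1–2 leaf stage run simultaneously. Visual injury, 0–100, about 10 days post-treatment.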

[2] = test system: barnyardgrass (Echinochloa crus-galli); experiment: Test B pre-/postemergence plant response
In short: as §1

corn (Zea mays) = experiment: Test B pre-/postemergence plant response
In short: as §1

[3] = test system: giant foxtail (Setaria faberii); experiment: Test B pre-/postemergence plant response
In short: as §1

kochia (Kochia scoparia) [4] = experiment: Test B pre-/postemergence plant response
In short: as §1

[5] = test system: pigweed (Amaranthus retroflexus); experiment: Test B pre-/postemergence plant response
In short: as §1

[6] = test system: ragweed (common ragweed, Ambrosia elatior); experiment: Test B pre-/postemergence plant response
In short: as §1

[7] = test system: wheat (Triticum aestivum); experiment: Test B pre-/postemergence plant response
In short: as §1

[8] = test system: blackgrass (Alopecurus myosuroides); experiment: Test B postemergence plant response
In short: (§2)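 Injury was assessed visually about 10 days after treatment, scored from 0 (no effect) to 100 (complete control) by comparison with untreated controls. Test chemicals had been applied postemergence to potted plants at the one- to two-leaf stage, grown in loam soil and sand in a greenhouse.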

[9] = test system: galium (catchweed bedstraw, Galium aparine); experiment: Test B postemergence plant response
In short: as §2

[10] = test system: barnyardgrass (Echinochloa crus-galli); experiment: Test C flooded paddy test plant response; details: Flood, 250 g ai/ha; scale of 0 to 100 where 0 is no effect and 100 is complete control; 13 to 15 days
In short: (§3)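 Greenhouse paddy assay, 13–15 days. Treatment into 3 cm floodwater over 2-leaf plants; visual 0–100 rating against controls.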

[11] = test system: ducksalad (Heteranthera limosa); experiment: Test C flooded paddy test plant response; details: Flood, 250 g ai/ha; scale of 0 to 100 where 0 is no effect and 100 is complete control; 13 to 15 days
In short: as §3

rice (Oryza sativa) = experiment: Test C flooded paddy test plant response; details: Flood, 250 g ai/ha; scale of 0 to 100 where 0 is no effect and 100 is complete control; 13 to 15 days
In short: as §3

[12] = test system: small-flower umbrella sedge (Cyperus difformis); experiment: Test C flooded paddy test plant response; details: Flood, 250 g ai/ha; scale of 0 to 100 where 0 is no effect and 100 is complete control; 13 to 15 days
In short: as §3

[13] = test system: chickweed (common chickweed, Stellaria media); experiment: Test D postemergence plant response; details: for Plant response rating (scale 0 to 100), Chickweed: 16 g ai/ha; for Chickweed plant response rating: 31 g ai/ha, scale 0 to 100 (0 no effect, 100 complete control); for Plant response rating, Chickweed: scale 0 to 100, 0 no effect, 100 complete control
In short: (§4)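 Plants grown in pots of peat moss–vermiculite medium with wetting agent and starter nutrients received postemergence applications of the formulated test chemicals at 2 to 18 cm height (1- to 4-leaf stage). After 13 to 15 days in a greenhouse, injury was scored visually against untreated controls, 0 (no effect) to 100 (complete control).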

kochia (Kochia scoparia) [14] = experiment: Test D postemergence plant response; details: for Plant response rating (scale 0 to 100), Kochia: 16 g ai/ha; for Kochia plant response rating: 31 g ai/ha, scale 0 to 100 (0 no effect, 100 complete control); for Plant response rating, Kochia: scale 0 to 100, 0 no effect, 100 complete control
In short: as §4

wild oat (Avena fatua) = experiment: Test D postemergence plant response; details: for Plant response rating (scale 0 to 100), Oat, Wild: 16 g ai/ha; for Plant response rating, Oat, Wild: 125 g ai/ha
In short: as §4

[15] = 125 g ai/ha, postemergence, 0 to 100 scale, 0 no effect, 100 complete control
[16] = Postemergence, 500 g ai/ha, 0 to 100 scale (0 no effect, 100 complete control)
[17] = Preemergence, 125 g ai/ha, 0 to 100 scale (0 no effect, 100 complete control)
[18] = Preemergence, 500 g ai/ha, 0 to 100 scale where 0 is no effect and 100 is complete control
[19] = 31 g ai/ha, scale 0 to 100 (0 no effect, 100 complete control)
[20] = 62 g ai/ha, scale 0 to 100, 0 no effect, 100 complete control
[21] = scale 0 to 100, 0 no effect, 100 complete control

## FC(F)c1cc(-c2c(Cl)cccc2Oc2ncc(Cl)cn2)no1 [Compound 179]
[1]; [15]
  Plant response rating, Ryegrass, Italian: 90
[1]; [16]
  Plant response rating, Ryegrass, Italian: 100
[1]; [17]
  Ryegrass, Italian plant response rating: 20
[1]; [18]
  Plant response rating, Ryegrass, Italian: 40
[2]; [15]
  Plant response rating, Barnyardgrass: 10
[2]; [16]
  Plant response rating, Barnyardgrass: 80
[2]; [17]
  Barnyardgrass plant response rating: 10
[2]; [18]
  Plant response rating, Barnyardgrass: 90
Corn (Zea mays); [15]
  Plant response rating, Corn: 10
Corn (Zea mays); [16]
  Plant response rating, Corn: 40
[3]; [15]
  Plant response rating, Foxtail, Giant: 40
[3]; [16]
  Plant response rating, Foxtail, Giant: 80
[3]; [17]
  Foxtail, Giant plant response rating: 80
[3]; [18]
  Plant response rating, Foxtail, Giant: 100
Kochia (Kochia scoparia) [4]; [15]
  Plant response rating, Kochia: 90
Kochia (Kochia scoparia) [4]; [16]
  Plant response rating, Kochia: 100
Kochia (Kochia scoparia) [4]; [17]
  Kochia plant response rating: 100
Kochia (Kochia scoparia) [4]; [18]
  Plant response rating, Kochia: 100
[5]; [15]
  Plant response rating, Pigweed: 100
[5]; [16]
  Plant response rating, Pigweed: 100
[5]; [17]
  Pigweed plant response rating: 100
[5]; [18]
  Plant response rating, Pigweed: 100
[6]; [15]
  Plant response rating, Ragweed: 10
[6]; [16]
  Plant response rating, Ragweed: 30
[6]; [17]
  Ragweed plant response rating: 10
[6]; [18]
  Plant response rating, Ragweed: 40
[7]; [15]
  Plant response rating, Wheat: 40
[7]; [16]
  Plant response rating, Wheat: 90
[8]; [15]
  Plant response rating, Blackgrass: 80
[8]; [16]
  Plant response rating, Blackgrass: 100
[9]; [15]
  Plant response rating, Galium: 100
[9]; [16]
  Plant response rating, Galium: 100
[10]
  Barnyardgrass plant response rating: 0
[11]
  Ducksalad plant response rating: 80
Rice (Oryza sativa)
  Rice plant response rating: 40
[12]
  Sedge, Umbrella plant response rating: 80
[13]
  Plant response rating (scale 0 to 100), Chickweed: 70
  Chickweed plant response rating: 80
[13]; 62 g ai/ha
  Plant response rating, Chickweed: 95
[13]; 125 g ai/ha
  Plant response rating, Chickweed: 95
Kochia (Kochia scoparia) [14]
  Plant response rating (scale 0 to 100), Kochia: 90
  Kochia plant response rating: 100
Kochia (Kochia scoparia) [14]; 62 g ai/ha
  Plant response rating, Kochia: 100
Kochia (Kochia scoparia) [14]; 125 g ai/ha
  Plant response rating, Kochia: 100
Wild oat (Avena fatua)
  Plant response rating (scale 0 to 100), Oat, Wild: 0
Wild oat (Avena fatua); [19]
  Oat, Wild plant response rating: 5
Wild oat (Avena fatua); [20]
  Oat, Wild plant response rating: 15
Wild oat (Avena fatua); [21]
  Plant response rating, Oat, Wild: 20

## N#Cc1cccc(Oc2ncc(Cl)cn2)c1-c1cc(C(F)F)on1 [Compound 180]
[1]; [15]
  Plant response rating, Ryegrass, Italian: 100
[1]; [16]
  Plant response rating, Ryegrass, Italian: 100
[1]; [17]
  Ryegrass, Italian plant response rating: 20
[1]; [18]
  Plant response rating, Ryegrass, Italian: 70
[2]; [15]
  Plant response rating, Barnyardgrass: 50
[2]; [16]
  Plant response rating, Barnyardgrass: 90
[2]; [17]
  Barnyardgrass plant response rating: 20
[2]; [18]
  Plant response rating, Barnyardgrass: 80
Corn (Zea mays); [15]
  Plant response rating, Corn: 20
Corn (Zea mays); [16]
  Plant response rating, Corn: 70
[3]; [15]
  Plant response rating, Foxtail, Giant: 80
[3]; [16]
  Plant response rating, Foxtail, Giant: 100
[3]; [17]
  Foxtail, Giant plant response rating: 90
[3]; [18]
  Plant response rating, Foxtail, Giant: 100
Kochia (Kochia scoparia) [4]; [15]
  Plant response rating, Kochia: 100
Kochia (Kochia scoparia) [4]; [16]
  Plant response rating, Kochia: 100
Kochia (Kochia scoparia) [4]; [17]
  Kochia plant response rating: 100
Kochia (Kochia scoparia) [4]; [18]
  Plant response rating, Kochia: 100
[5]; [15]
  Plant response rating, Pigweed: 100
[5]; [16]
  Plant response rating, Pigweed: 100
[5]; [17]
  Pigweed plant response rating: 100
[5]; [18]
  Plant response rating, Pigweed: 100
[6]; [15]
  Plant response rating, Ragweed: 50
[6]; [16]
  Plant response rating, Ragweed: 70
[6]; [17]
  Ragweed plant response rating: 50
[6]; [18]
  Plant response rating, Ragweed: 70
[7]; [15]
  Plant response rating, Wheat: 60
[7]; [16]
  Plant response rating, Wheat: 90
[8]; [15]
  Plant response rating, Blackgrass: 90
[8]; [16]
  Plant response rating, Blackgrass: 90
[9]; [15]
  Plant response rating, Galium: 100
[9]; [16]
  Plant response rating, Galium: 100
[10]
  Barnyardgrass plant response rating: 0
[11]
  Ducksalad plant response rating: 90
Rice (Oryza sativa)
  Rice plant response rating: 0
[12]
  Sedge, Umbrella plant response rating: 80
[13]
  Plant response rating (scale 0 to 100), Chickweed: 60
  Chickweed plant response rating: 60
[13]; 62 g ai/ha
  Plant response rating, Chickweed: 85
[13]; 125 g ai/ha
  Plant response rating, Chickweed: 95
Kochia (Kochia scoparia) [14]
  Plant response rating (scale 0 to 100), Kochia: 85
  Kochia plant response rating: 90
Kochia (Kochia scoparia) [14]; 62 g ai/ha
  Plant response rating, Kochia: 100
Kochia (Kochia scoparia) [14]; 125 g ai/ha
  Plant response rating, Kochia: 100
Wild oat (Avena fatua)
  Plant response rating (scale 0 to 100), Oat, Wild: 0
Wild oat (Avena fatua); [19]
  Oat, Wild plant response rating: 5
Wild oat (Avena fatua); [20]
  Oat, Wild plant response rating: 5
Wild oat (Avena fatua); [21]
  Plant response rating, Oat, Wild: 30
